According to US10555932B2, “Method of restoring analgesic efficacy of alpha2-adrenoceptor agonists in neuropathic pain treatment” (KOREA INSTITUTE OF SCIENCE AND TECHNOLOGY, priority 2016, dated 2020):
Where a name gives a salt, the structure may show the parent alone.

Columns and labels:
[1] = test system: mice having neuropathic pain induced by a spared nerve injury (SNI); settings: for analgesic efficacy at the chronic stage of the neuropathic pain / analgesic efficacy at the earlier stage of the neuropathic pain: agonist alone; for analgesic efficacy upon co-administration of CCG 50014 (RGS4 inhibitor): at 14, 28, or even 56 days after SNI, CCG50014 intrathecally 5 minutes before agonist (FIGS. 3 and 4); for analgesic effect of 1 nmol at 14 days after SNI / analgesic effect at 28 days after SNI / analgesic effect at 56 days after SNI / analgesic effect at 14 days after SNI / higher dose needed at 56 days after SNI for analgesic effect similar to that at 14 days after SNI / neuropathic pain induced by SNI (withdrawal threshold): mouse; for analgesic effect of 1 nmol at 14 days after SNI / analgesic effect at 28 days after SNI / analgesic effect at 56 days after SNI / analgesic effect at 14 days after SNI / higher dose needed at 56 days after SNI for analgesic effect similar to that at 14 days after SNI: intrathecal; for analgesic effect of 1 nmol at 14 days after SNI: alone (FIGS. 5 and 6); for analgesic effect at 28 days after SNI / analgesic effect at 56 days after SNI / analgesic effect at 14 days after SNI / higher dose needed at 56 days after SNI for analgesic effect similar to that at 14 days after SNI: alone; for analgesic effect at 14 days after SNI: as doses increased; for higher dose needed at 56 days after SNI for analgesic effect similar to that at 14 days after SNI: relative to 1 nmol at 14 days; for neuropathic pain induced by SNI (withdrawal threshold): single intrathecal injection, agonist alone (FIGS. 1 and 2)
From the text: To prepare neuralgia-induced mouse models, mice having a genetic background of 129S4/SvJae×C57BL/6J were used. According to a modification of the method described in the related art, a spared nerve injury (SNI) of sciatic nerve was induced in the mice.
Briefly, the mice were anesthetized with 3% isoflurane in a mixture of N2O/O2 gas. At the right hindlimb, incision was made at a mid-thigh level, and peripheral branches (sural, common peroneal, and tibial nerves) of the sciatic nerve were exposed. Both tibial and common peroneal nerves were tightly ligated with 8.0 silk thread together, and a 1-2 mm section of the two nerves was removed. The sural nerve was carefully preserved by avoiding any nerve stretch or nerve contact with surgical tools. Muscle and skin were closed in two distinct layers with chromic catgut 6.0 and silk 6.0 suture, respectively. During recovery, animals were housed in clear plastic cages with a thick layer of sawdust bedding.
Clonidine (2-[(2,6-dichlorophenyl)amino-2-imidazoleine hydrochloride, alpha2AR agonist) was purchased from Sigma (St. Louis, Mo., USA). CCG50014 was diluted in 12% dimethyl sulfoxide (DMSO) in saline.
Each drug was administered by intrathecal injection based on the technique developed by Hylden and Wilcox. […] drugs were dissolved in 5 μl of vehicle. Briefly, for mouse intrathecal injections, a 30-gauge needle (length: 0.5 inch) connected to a 50 μl Hamilton syringe was inserted into the subarachnoid space between the lumbar vertebrae L5 and L6. A flick of the mouse tail provided a reliable indicator that the needle had penetrated the dura meter. The syringe was held in position for a few seconds after the injection of 5 μl/mouse.
To evaluate a degree of pain alleviation in each of the neuralgic mice, a degree of pain responses to mechanical stimuli was measured by measuring mechanical threshold based on the method described in the related art. In detail, mechanical withdrawal thresholds were determined for all mice at day 0 prior to neuropathic surgery in order to obtain normal baseline values of withdrawal threshold to mechanical stimuli. For 56 days post-SNI surgery, all experimental animals were behaviorally tested to confirm the development of mechanical allodynia. […] The test was performed using an ascending series of von Frey filaments (North Coast Medical, Morgan Hill, Calif.). Mice were placed in an acrylic cylinder (6.5 cm in diameter and 17 cm in height) on an elevated metal mesh grid and allowed to acclimate for 30 minutes before testing. Each monofilament (0.008 g, 0.02 g, 0.07 g, 0.16 g, 0.4 g, and 0.6 g) was applied 6 times in ascending order to the midplantar region of each hind paw of mouse. The monofilament that produced a paw withdrawal, flinch, or lick in 3 of 6 applications was defined as the 50% paw withdrawal threshold. The behavioral investigator was blinded to the treatment of animals during the experiments.
Results of each of the experiments above are expressed as means±SEM unless otherwise stated. Data analysis and statistical comparisons were performed using GraphPad Prism version 5.0 (GraphPad Software, San Diego, Calif.). Comparison between two groups was made using the Student's t-test. For multiple comparisons, ANOVA followed by post hoc Tukey test was performed. Differences with P<0.05 were considered significant.

motion performance = settings: mouse
Protocol: To evaluate degradation of motion performance capability as one of side effects caused by the low blood pressure, rotarod test was performed on each of the mice administered with clonidine or the RGS4 inhibitor. […] All mice were tested 24 hours before the actual rotarod test, and mice that were able to remain on the rod for at least 120 seconds were included in the experiment. 30 minutes after clonidine injection, each animal was subsequently tested on the rotarod over 2-minutes period and their performance time on the bar (in seconds) was measured. The test was repeated 3 times and the mean value for each animal was recorded.
(§1) Test results are expressed as means±SEM unless otherwise stated. Data analysis and statistical comparisons were performed using GraphPad Prism version 5.0 (GraphPad Software, San Diego, Calif.). Comparison between two groups was made using the Student's t-test. For multiple comparisons, ANOVA followed by post hoc Tukey test was performed. Differences with P<0.05 were considered significant.

[2] = test system: systolic blood pressure (SBP); settings: mouse
Protocol: To evaluate the induction of low blood pressure, systolic blood pressure (SBP) was measured using a non-invasive computerized tail-cuff system as previously described in the art (PowerLab system, ADI Instrument Pry Ltd., Chain Hills, NSW, Australia). Briefly, animals were acclimated for 30 minutes in a quiet test room prior to obtaining cardiovascular measurements. At the end of the 1 hour period, the SBP was measured. This experiment was repeated 3 times and the mean value for each animal was recorded. […] All cardiovascular measurements were obtained between 1 pm to 3 pm in order to avoid changes due to normal circadian rhythms.
as §1

[3] = cited from earlier work

Compound	analgesic efficacy upon co-administration of dynasore ([1]; mouse SNI, 56th day after SNI, dynasore intrathecally 5 minutes before clonidine (FIG. 9))	analgesic efficacy at the chronic stage of the neuropathic pain ([1]; mouse SNI)	analgesic efficacy at the earlier stage of the neuropathic pain ([1]; mouse SNI)	analgesic efficacy upon co-administration of CCG 50014 (RGS4 inhibitor) ([1]; mouse SNI)	analgesic effect of 1 nmol at 14 days after SNI [1]	analgesic effect at 28 days after SNI [1]	analgesic effect at 56 days after SNI [1]	analgesic effect at 14 days after SNI [1]	higher dose needed at 56 days after SNI for analgesic effect similar to that at 14 days after SNI [1]	neuropathic pain induced by SNI (withdrawal threshold) [1]	decreased motor performance side effect (motion performance; 1 nmol in combination with the RGS4 inhibitor (FIG. 8))	motor performance (rotarod) (motion performance; clonidine 10 nmol alone, 30 minutes after injection (FIG. 8))	low blood pressure side effect ([2]; 1 nmol in combination with the RGS4 inhibitor (FIG. 7))	blood pressure (SBP) change ([2]; clonidine 10 nmol alone (effective dose), 30 minutes after treatment (FIG. 7))	side effect ([3]; healthy adult male, concentration gradient from about 150 μg to about 450 μg)	side effects ([3]; human, 1 μg/kg intravenously with lidocaine)	harmful side effect ([3]; human, 5 μg/kg orally)
Clc1cccc(Cl)c1N=C1NCCN1 [clonidine, 2-[(2,6-dichlorophenyl)amino-2-imidazoleine hydrochloride]	restored	lost the analgesic efficacy	exhibited the analgesic efficacy	maintained	significant analgesic effect	decreased	completely disappeared	potent analgesic effect	10 fold	alleviated	no side effects	rapidly decreased motor performance	no side effects	significant symptoms of low blood pressure	no side effect	no statistically significant side effects	no harmful side effect
Cc1cccc([C@H](C)c2c[nH]cn2)c1C.Cl [dexmedetomidine, 4-[(1S)-1-(2,3-dimethylphenyl)ethyl]-1H-imidazole hydrochloride]	–	lost the analgesic efficacy	exhibited the analgesic efficacy	maintained	significant analgesic effect	decreased	completely disappeared	potent analgesic effect	3 fold	alleviated	–	–	–	–	–	–	–
